The results in this text go back to patent US20260028364A1, “CATIONIC CHROMENONES AND THEIR USE IN ONCOLOGY” (FLORATEK PHARMA S.A., priority 2022, published 2026).

pIC50: −log10 of the molar value.

Type in all cases: cell-based
Test [1] has as its system Toll-like Receptor (TLR4). The test can be described thus: SelectScreen CellSensor pathway inhibition, Toll-like Receptor (TLR4). To be noted: Homo sapiens; NFkB-bla THP-1, stimulus LPS. How it is done: (§1) Inhibition of various cellular pathways known to be involved in malignancy was tested using the SelectScreen Cell-based Pathway Profiling GeneBLAzer™ cell signaling pathway specific CellSensor™ cell lines ((Thermo Fisher). The assay is based on a beta-lactamase reporter activity which is modulated and can be measured quantitatively and selectively with the LiveBLAzer™-FRET B/G Loading Substrate. SelectScreen Cell-Based Pathway Profiling Service uses XLfit from IDBS. The dose response curve is curve fit to model number 205 (sigmoidal dose-response model). Custom logic was built by Thermo Fisher for the data analysis tool to address the different compound characteristics that can be observed with functional assays.
Toll-like Receptor (TLR4)—NFKB-bla THP-1—Inhibitor Screen, Activated by LPS
NFKB-bla THP-1 cells are thawed and resuspended in Assay Media (RPMI, 0.5% dialyzed FBS, 0.1 mM NEAA, 1 mM Sodium Pyruvate, 100 U/mL/[…] Pen/Strep) to a concentration of 625,000 cells/mL. 32 μL of cell suspension is added to each well of a 384-well TC-Treated assay plate. Cells in Assay Media are incubated for 16-24 hours in the plate at 37° C./5% CO2 in a humidified incubator. […] The plate is read on a fluorescence plate reader.

Another test deals with A-673. Kind of test: CellTiter-Glo cell viability, A-673. To be noted: Homo sapiens, A673; A-673 cells, 72 h with compound. How it is done:
(§2) Antitumor activity against a panel of cancer cell lines Antitumor activity of the compounds was assessed by using the CellTiter-Glow® Luminescent Cell Viability assay (Promega #G7572) according to the manufacturer's instructions. The compounds were tested at 5 or 6 concentrations in 1:2 dilution increments (highest concentration 10 µM) in triplicate well conditions.
(§3) Tumor cells were grown at 37° C. in a humidified atmosphere with 5% CO2 in RPMI 1640 or DMEM medium, supplemented with 10% (v/v) fetal calf serum and 50 μg/ml gentamicin for up to 20 passages, and were passaged once or twice weekly. Cells were harvested using TrypLE or PBS buffer containing 1 mM EDTA, and the percentage of viable cells is determined using a cell counter.
(§4) Cells were harvested from exponential phase cultures, counted and plated in 96 well flat-bottom microtiter plates at a cell density depending on the cell line's growth rate (4,000-20,000 cells/well depending on the cell line's growth rate) in RPMI 1640 or DMEM medium supplemented with 10% (v/v) fetal calf serum and 50 μg/ml gentamicin (140 μl/well). Cultures were incubated at 37° C. and 5% CO2 in a humidified atmosphere. After 24 h, 10 μl of test compounds or control medium are added, and left on the cells for another 72 h. Compounds were serially diluted in DMSO, transferred in cell culture medium, and added to the assay plates. The DMSO concentration was kept constant at <0.2% v/v across the assay plate. Viability of cells was quantified by the CellTiter-Glow® Luminescent Cell Viability assay (Promega #G7572). Luminescence was measured with the microplate luminometer (En Vision Perkin Elmer).
(§5) Sigmoidal concentration-response curves were fitted to the data points (test-versus-control, T/C values) obtained for each tumor model using Graph Pad prism 5.02 software. IC50 values are reported as absolute IC50 values, being the concentration of test compound at the intersection of the concentration-response curves with T/C=50%.

Another test has as its system JAK/STAT. Kind of test: SelectScreen CellSensor pathway inhibition, JAK/STAT. The conditions noted are these: Homo sapiens; ISRE-bla Jurkat, stimulus IFN-alpha. The method, then:
as §1
JAK/STAT—ISRE-bla HEK 293T—Inhibitor Screen, Activated by IFN-Alpha
ISRE-bla HEK 293T cells are thawed and resuspended in Assay Media (OPTI-MEM, 0.5% dialyzed FBS, 0.1 mM NEAA, 1 mM Sodium Pyruvate, 100 U/mL/[…] Pen/Strep) to a concentration of 625,000 cells/mL. 32 μL of cell suspension is added to each well of a 384-well TC-Treated assay plate. Cells in Assay Media are incubated for 16-24 hours in the plate at 37° C./5% CO2 in a humidified incubator. […] 4 μL of 10× control activator IFN-alpha at the pre-determined EC80 concentration is added to wells containing the control inhibitor or compounds. […] The plate is read on a fluorescence plate reader.

The subject of another test is MCF-7. The test can be described thus: CellTiter-Glo cell viability, MCF-7. The conditions noted are these: Homo sapiens, MCF7; MCF-7 cells, 72 h with compound. How it is done:
as §2, §3, §4, §5

The subject of another test is MeWo. Kind of test: Caspase-Glo 3/7 apoptosis assay, MeWo. To be noted: MeWo cells, 10 μM, 24 h. How it is done:
Apoptosis activity was evaluated using Caspase-Glo 3/7 Assay kit (Promega-G8091) according to the manufacturer's instructions. Cells were grown as above and harvested from exponential phase cultures, counted and plated in 96 black well flat-bottom microtiter plates at a cell density depending on the cell line's growth rate (3,000-10,000 cells/well depending on the cell line's growth rate). Following an overnight incubation, compounds were added to the cell plates at various concentrations (highest at […]) with the DMSO concentration maintained at 0.1% for a 24 h period treatment. 100 μL of Caspase-Glo 3/7 Reagent was added to each well of 96-well plate containing 100 μL culture medium, and after 30 min at room temperature, luminescence was measured with the microplate luminometer (EnVision Perkin Elmer). The induced relative Caspase 3/7 activity of the tested compounds was determined by the following formula: Relative Caspase 3/7 activity (fold increase)=(RLU compound−RLU blank)/(RLU control−RLU blank).

In the case of `COc1ccc2c(=O)c(-c3ccc(CCCC[P+](c4ccccc4)(c4ccccc4)c4ccccc4)cc3)coc2c1OC.[Br-]` [SND470, (4-(4-(7,8-Dimethoxy-4-oxo-4H-chromen-3-yl)phenyl)butyl)triphenylphosphonium bromide], the pIC50 was 6.25 in test [1], 6.70 in the test with A-673, 6.44 in the test with JAK/STAT and 7.68 in the test with MCF-7. Also, the “Fold activation of Caspase 3/7” value with MeWo is 2.55 Fold.
